Results: publication PMC11277489, “Novel Piperazine Derivatives of Vindoline as Anticancer Agents” (International Journal of Molecular Sciences, 2024)

Assays:
[1] = system: HS 578T; assay: NCI60 one-dose screen (10 μM), Breast Cancer; type: cell-based; settings: Homo sapiens; 10 μM; HS 578T, Breast Cancer; read-out: Growth percent rate
[2] = system: SNB-75; assay: NCI60 five-dose screen, CNS Cancer; type: cell-based; settings: Homo sapiens; SNB-75, CNS Cancer; five-dose screen; read-out: GI50
[3] = system: OVCAR-3; assay: NCI60 one-dose screen (10 μM), Ovarian Cancer; type: cell-based; settings: Homo sapiens; 10 μM; OVCAR-3, Ovarian Cancer; read-out: Growth percent rate
[4] = system: A549/ATCC; assay: NCI60 five-dose screen, Non-small Cell Lung Cancer; type: cell-based; settings: Homo sapiens; A549/ATCC, Non-small Cell Lung Cancer; five-dose screen; read-out: GI50
[5] = system: UACC-257; assay: NCI60 five-dose screen, Melanoma; type: cell-based; settings: Homo sapiens; UACC-257, Melanoma; five-dose screen; read-out: GI50
[6] = system: MDA-MB-468; assay: NCI60 one-dose screen (10 μM), Breast Cancer; type: cell-based; settings: Homo sapiens; 10 μM; MDA-MB-468, Breast Cancer; read-out: Growth percent rate
[7] = system: SN12C; assay: NCI60 one-dose screen (10 μM), Renal Cancer; type: cell-based; settings: Homo sapiens, 10 μM, Renal Cancer, read-out: Growth percent rate
[8] = system: NCI-H522; assay: NCI60 five-dose screen, Non-small Cell Lung Cancer; type: cell-based; settings: Homo sapiens; NCI-H522, Non-small Cell Lung Cancer; five-dose screen; read-out: GI50
[9] = system: UO-31; assay: NCI60 one-dose screen (10 μM), Renal Cancer; type: cell-based; settings: Homo sapiens; 10 μM; UO-31, Renal Cancer; read-out: Growth percent rate
[10] = system: UACC-62; assay: NCI60 one-dose screen (10 μM), Melanoma; type: cell-based; settings: Homo sapiens; 10 μM; UACC-62, Melanoma; read-out: Growth percent rate
[11] = system: SW-620; assay: NCI60 five-dose screen, Colon Cancer; type: cell-based; settings: Homo sapiens; SW-620, Colon Cancer; five-dose screen; read-out: GI50
[12] = system: BT-549; assay: NCI60 one-dose screen (10 μM), Breast Cancer; type: cell-based; settings: Homo sapiens; 10 μM; BT-549, Breast Cancer; read-out: Growth percent rate
[13] = system: PC-3; assay: NCI60 five-dose screen, Prostate Cancer; type: cell-based; settings: Homo sapiens; PC-3, Prostate Cancer; five-dose screen; read-out: GI50
[14] = system: HCT-116; assay: NCI60 one-dose screen (10 μM), Colon Cancer; type: cell-based; settings: Homo sapiens; 10 μM; HCT-116, Colon Cancer; read-out: Growth percent rate
[15] = system: OVCAR-4; assay: NCI60 five-dose screen, Ovarian Cancer; type: cell-based; settings: Homo sapiens; OVCAR-4, Ovarian Cancer; five-dose screen; read-out: GI50
[16] = system: OVCAR-3; assay: NCI60 five-dose screen, Ovarian Cancer; type: cell-based; settings: Homo sapiens; OVCAR-3, Ovarian Cancer; five-dose screen; read-out: GI50
[17] = system: T-47D; assay: NCI60 one-dose screen (10 μM), Breast Cancer; type: cell-based; settings: Homo sapiens, T47D; 10 μM; T-47D, Breast Cancer; read-out: Growth percent rate
[18] = system: NCI-H460; assay: NCI60 five-dose screen, Non-small Cell Lung Cancer; type: cell-based; settings: Homo sapiens; NCI-H460, Non-small Cell Lung Cancer; five-dose screen; read-out: GI50
[19] = system: LOX IMVI; assay: NCI60 five-dose screen, Melanoma; type: cell-based; settings: Homo sapiens, Melanoma, five-dose screen, read-out: GI50
[20] = system: K-562; assay: NCI60 five-dose screen, Leukemia; type: cell-based; settings: Homo sapiens, K562; K-562, Leukemia; five-dose screen; read-out: GI50
[21] = system: BT-549; assay: NCI60 five-dose screen, Breast Cancer; type: cell-based; settings: Homo sapiens; BT-549, Breast Cancer; five-dose screen; read-out: GI50
[22] = system: SK-MEL-2; assay: NCI60 five-dose screen, Melanoma; type: cell-based; settings: Homo sapiens; SK-MEL-2, Melanoma; five-dose screen; read-out: GI50
[23] = system: NCI-H23; assay: NCI60 five-dose screen, Non-small Cell Lung Cancer; type: cell-based; settings: Homo sapiens; NCI-H23, Non-small Cell Lung Cancer; five-dose screen; read-out: GI50
[24] = system: HOP-62; assay: NCI60 five-dose screen, Non-small Cell Lung Cancer; type: cell-based; settings: Homo sapiens; HOP-62, Non-small Cell Lung Cancer; five-dose screen; read-out: GI50
[25] = system: NCI/ADR-RES; assay: NCI60 five-dose screen, Ovarian Cancer; type: cell-based; settings: Homo sapiens, Ovarian Cancer, five-dose screen, read-out: GI50
[26] = system: HCT-15; assay: NCI60 five-dose screen, Colon Cancer; type: cell-based; settings: Homo sapiens; HCT-15, Colon Cancer; five-dose screen; read-out: GI50
[27] = system: MDA-MB-231/ATCC; assay: NCI60 one-dose screen (10 μM), Breast Cancer; type: cell-based, human; settings: Homo sapiens; 10 μM; MDA-MB-231/ATCC, Breast Cancer; read-out: Growth percent rate
[28] = system: NCI/ADR-RES; assay: NCI60 one-dose screen (10 μM), Ovarian Cancer; type: cell-based; settings: Homo sapiens, 10 μM, Ovarian Cancer, read-out: Growth percent rate
[29] = system: SR; assay: NCI60 one-dose screen (10 μM), Leukemia; type: cell-based; settings: Homo sapiens, 10 μM, Leukemia, read-out: Growth percent rate
[30] = system: NCI-H226; assay: NCI60 one-dose screen (10 μM), Non-small Cell Lung Cancer; type: cell-based; settings: Homo sapiens; 10 μM; NCI-H226, Non-small Cell Lung Cancer; read-out: Growth percent rate
[31] = system: T-47D; assay: NCI60 five-dose screen, Breast Cancer; type: cell-based; settings: Homo sapiens, T47D; T-47D, Breast Cancer; five-dose screen; read-out: GI50
[32] = system: SF-268; assay: NCI60 five-dose screen, CNS Cancer; type: cell-based; settings: Homo sapiens; SF-268, CNS Cancer; five-dose screen; read-out: GI50
[33] = system: HOP-92; assay: NCI60 one-dose screen (10 μM), Non-small Cell Lung Cancer; type: cell-based; settings: Homo sapiens; 10 μM; HOP-92, Non-small Cell Lung Cancer; read-out: Growth percent rate
[34] = system: SF-539; assay: NCI60 five-dose screen, CNS Cancer; type: cell-based; settings: Homo sapiens; SF-539, CNS Cancer; five-dose screen; read-out: GI50
[35] = system: A498; assay: NCI60 five-dose screen, Renal Cancer; type: cell-based; settings: Homo sapiens; A498, Renal Cancer; five-dose screen; read-out: GI50
[36] = system: ACHN; assay: NCI60 five-dose screen, Renal Cancer; type: cell-based; settings: Homo sapiens, Renal Cancer, five-dose screen, read-out: GI50
[37] = system: SK-OV-3; assay: NCI60 one-dose screen (10 μM), Ovarian Cancer; type: cell-based; settings: Homo sapiens; 10 μM; SK-OV-3, Ovarian Cancer; read-out: Growth percent rate
[38] = system: SK-MEL-5; assay: NCI60 five-dose screen, Melanoma; type: cell-based; settings: Homo sapiens; SK-MEL-5, Melanoma; five-dose screen; read-out: GI50
[39] = system: PC-3; assay: NCI60 one-dose screen (10 μM), Prostate Cancer; type: cell-based; settings: Homo sapiens; 10 μM; PC-3, Prostate Cancer; read-out: Growth percent rate
[40] = system: U251; assay: NCI60 five-dose screen, CNS Cancer; type: cell-based; settings: Homo sapiens, U-251; U251, CNS Cancer; five-dose screen; read-out: GI50
[41] = system: OVCAR-5; assay: NCI60 one-dose screen (10 μM), Ovarian Cancer; type: cell-based; settings: Homo sapiens; 10 μM; OVCAR-5, Ovarian Cancer; read-out: Growth percent rate
[42] = system: NCI-H226; assay: NCI60 five-dose screen, Non-small Cell Lung Cancer; type: cell-based; settings: Homo sapiens; NCI-H226, Non-small Cell Lung Cancer; five-dose screen; read-out: GI50
[43] = system: EKVX; assay: NCI60 one-dose screen (10 μM), Non-small Cell Lung Cancer; type: cell-based; settings: Homo sapiens, 10 μM, Non-small Cell Lung Cancer, read-out: Growth percent rate
[44] = system: NCI-H522; assay: as above; type: cell-based; settings: Homo sapiens; 10 μM; NCI-H522, Non-small Cell Lung Cancer; read-out: Growth percent rate
[45] = system: HL-60(TB); assay: NCI60 five-dose screen, Leukemia; type: cell-based; settings: Homo sapiens; HL-60(TB), Leukemia; five-dose screen; read-out: GI50
[46] = system: HCC-2998; assay: NCI60 one-dose screen (10 μM), Colon Cancer; type: cell-based; settings: Homo sapiens; 10 μM; HCC-2998, Colon Cancer; read-out: Growth percent rate

CC[C@]12C=CCN3CC[C@@]4(c5ccc(OC)cc5N(C)[C@H]4[C@@](O)(C(=O)OC)[C@@H]1OC(=O)CCC(=O)N1CCN(c4ccc(C(F)(F)F)cc4)CC1)[C@@H]32 [Compound 28]
activity at 10 µM [1]: 20.1% | GI50 [2]: 2 µM | activity at 10 µM [3]: -2.22% | GI50 [4]: 2.75 µM | GI50 [5]: 3.89 µM | activity at 10 µM [6]: -42.8% | activity at 10 µM [7]: 9.74% | GI50 [8]: 3.24 µM | activity at 10 µM [9]: 10.3% | activity at 10 µM [10]: -75.8% | GI50 [11]: 3.98 µM | activity at 10 µM [12]: 12.9% | GI50 [13]: 2.45 µM | activity at 10 µM [14]: 29.4% | GI50 [15]: 4.27 µM | GI50 [16]: 3.72 µM | activity at 10 µM [17]: 38.4% | GI50 [18]: 3.31 µM | GI50 [19]: 3.24 µM | GI50 [20]: 1.7 µM | GI50 [21]: 3.31 µM | GI50 [22]: 2.75 µM | GI50 [23]: 4.37 µM | GI50 [24]: 5.5 µM | GI50 [25]: 3.31 µM | GI50 [26]: 3.16 µM | activity at 10 µM [27]: -47% | activity at 10 µM [28]: 5.44% | activity at 10 µM [29]: 18.4% | activity at 10 µM [30]: 14.9% | GI50 [31]: 3.55 µM | GI50 [32]: 4.07 µM | activity at 10 µM [33]: -3.33% | GI50 [34]: 5.25 µM | GI50 [35]: 5.75 µM | GI50 [36]: 3.8 µM | activity at 10 µM [37]: 37.5% | GI50 [38]: 3.24 µM | activity at 10 µM [39]: 3.75% | GI50 [40]: 3.31 µM | activity at 10 µM [41]: 2.55% | GI50 [42]: 3.16 µM | activity at 10 µM [43]: 20.9% | activity at 10 µM [44]: -9.16% | GI50 [45]: 1.45 µM | activity at 10 µM [46]: -75.2%

CC[C@]12C=CCN3CC[C@@]4(c5ccc(OC)cc5N(C)[C@H]4[C@@](O)(C(=O)OC)[C@@H]1OC(=O)CCCN1CCN(c4ccc(C(F)(F)F)cc4)CC1)[C@@H]32 [Compound 22]
activity at 10 µM [1]: -46.2% | GI50 [2]: 1.66 µM | activity at 10 µM [3]: -71.5% | GI50 [4]: 2.95 µM | GI50 [5]: 1.82 µM | activity at 10 µM [6]: -83.4% | activity at 10 µM [7]: -66.4% | GI50 [8]: 1.91 µM | activity at 10 µM [9]: 2.06% | activity at 10 µM [10]: -90.9% | GI50 [11]: 2.95 µM | activity at 10 µM [12]: -69.1% | GI50 [13]: 2.45 µM | activity at 10 µM [14]: -25.6% | GI50 [15]: 3.8 µM | GI50 [16]: 2.45 µM | activity at 10 µM [17]: -11.4% | GI50 [18]: 1.86 µM | GI50 [19]: 1.7 µM | GI50 [20]: 1.41 µM | GI50 [21]: 3.02 µM | GI50 [22]: 2.19 µM | GI50 [23]: 4.57 µM | GI50 [24]: 3.02 µM | GI50 [25]: 2.29 µM | GI50 [26]: 1.82 µM | activity at 10 µM [27]: -67.4% | activity at 10 µM [28]: -10.9% | activity at 10 µM [29]: 14.2% | activity at 10 µM [30]: -50.7% | GI50 [31]: 3.02 µM | GI50 [32]: 3.63 µM | activity at 10 µM [33]: -30.9% | GI50 [34]: 1.78 µM | GI50 [35]: 3.72 µM | GI50 [36]: 3.24 µM | activity at 10 µM [37]: 23.6% | GI50 [38]: 1.7 µM | activity at 10 µM [39]: -25.4% | GI50 [40]: 2.24 µM | activity at 10 µM [41]: -31.1% | GI50 [42]: 2.88 µM | activity at 10 µM [43]: -49.9% | activity at 10 µM [44]: -86% | GI50 [45]: 1.66 µM | activity at 10 µM [46]: -82.3%
